Source: patent US9149038B2, “4-amino-6-(heterocyclic)picolinates and 6-amino-2-(heterocyclic)pyrimidine-4-carboxylates and their use as herbicides” (Dow AgroSciences LLC, priority 2013, dated 2015)
Like-named read-outs stand apart in the source and are kept apart here.

Columns and labels:
[1] = tested on: Key Broadleaf Weed and Crop Species; assay: Post-Emergent Test II: postemergent herbicidal activity, visual rating after 14 d (Table 7); format: in vivo; conditions: post-emergence, 336 h; for pest or weed control at 35 g/ha: 35 g ai/ha; for pest or weed control at 70 g/ha: 70 g ai/ha; for pest or weed control at 140 g/ha: 140 g ai/ha
Method in brief: (§1)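 Scoring is visual, 0-100, at 14 d after application, comparing treated with untreated plants. Application: overhead track spray at 187 L/ha onto seedlings at 1-2 true leaves, in surfactant/crop-oil carrier.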

[2] = tested on: Key Grass and Sedge Weeds as well as Grass Crops; assay: Post-Emergent Test II: postemergent herbicidal activity, visual rating after 14 d (Table 8); format: in vivo; conditions: post-emergence, 336 h; for pest or weed control at 35 g/ha: 35 g ai/ha; for pest or weed control at 70 g/ha: 70 g ai/ha; for pest or weed control at 140 g/ha: 140 g ai/ha
Method in brief: as §1

[3] = ABUTH: velvetleaf (Abutilon theophrasti), read-out: Visual Growth Reduction (%) 14 Days After Application ABUTH
[4] = AMARE: redroot pigweed (Amaranthus retroflexus), read-out: Visual Growth Reduction (%) 14 Days After Application AMARE
[5] = BRSNN: oilseed rape, canola (Brassica napus), read-out: Visual Growth Reduction (%) 14 Days After Application BRSNN
[6] = CHEAL: lambsquarters (Chenopodium album), read-out: Visual Growth Reduction (%) 14 Days After Application CHEAL
[7] = EPHHL: wild poinsettia (Euphorbia heterophylla), read-out: Visual Growth Reduction (%) 14 Days After Application EPHHL
[8] = HELAN: sunflower (Helianthus annuus), read-out: Visual Growth Reduction (%) 14 Days After Application HELAN
[9] = barnyardgrass (Echinochloa crus-galli), read-out: Visual Growth Reduction (%) 14 Days After Application, ECHCG
[10] = giant foxtail (Setaria faberi), read-out: Visual Growth Reduction (%) 14 Days After Application, SETFA
[11] = maize, corn (Zea mays), read-out: Visual Growth Reduction (%) 14 Days After Application, ZEAMX
[12] = rice (Oryza sativa), read-out: Visual Growth Reduction (%) 14 Days After Application, ORYSA
[13] = wheat, spring (Triticum aestivum), read-out: Visual Growth Reduction (%) 14 Days After Application, TRZAS
[14] = yellow nutsedge (Cyperus esculentus), read-out: Visual Growth Reduction (%) 14 Days After Application, CYPES

Nc1cc(-c2ccc(F)c3c2OC(F)(F)O3)nc(C(=O)O)c1Cl [Compound 89]
95 to 100%: pest or weed control at 35 g/ha [1, 4] | pest or weed control at 70 g/ha [1, 4] | pest or weed control at 140 g/ha [1, 4] | pest or weed control at 140 g/ha [1, 5] | pest or weed control at 35 g/ha [1, 6] | pest or weed control at 70 g/ha [1, 6] | pest or weed control at 140 g/ha [1, 6]
85 to 94%: pest or weed control at 35 g/ha [1, 5] | pest or weed control at 70 g/ha [1, 5]
75 to 84%: pest or weed control at 70 g/ha [1, 3] | pest or weed control at 140 g/ha [1, 3] | pest or weed control at 140 g/ha [1, 8]
60 to 74%: pest or weed control at 35 g/ha [1, 8] | pest or weed control at 70 g/ha [1, 8]
0 to 29%: pest or weed control at 35 g/ha [1, 3] | pest or weed control at 35 g/ha [1, 7] | pest or weed control at 70 g/ha [1, 7] | pest or weed control at 140 g/ha [1, 7] | pest or weed control at 35 g/ha [2, 9] | pest or weed control at 70 g/ha [2, 9] | pest or weed control at 140 g/ha [2, 9] | pest or weed control at 35 g/ha [2, 10] | pest or weed control at 70 g/ha [2, 10] | pest or weed control at 140 g/ha [2, 10] | pest or weed control at 35 g/ha [2, 11] | pest or weed control at 70 g/ha [2, 11] | pest or weed control at 140 g/ha [2, 11] | pest or weed control at 35 g/ha [2, 12] | pest or weed control at 70 g/ha [2, 12] | pest or weed control at 140 g/ha [2, 12] | pest or weed control at 35 g/ha [2, 13] | pest or weed control at 70 g/ha [2, 13] | pest or weed control at 140 g/ha [2, 13] | pest or weed control at 35 g/ha [2, 14] | pest or weed control at 70 g/ha [2, 14] | pest or weed control at 140 g/ha [2, 14]
